Data taken from patent publication US9695155B2, “Herbicidal substituted pyrimidinyloxy benzene compounds” (E. I. DU PONT DE NEMOURS AND COMPANY, priority 2013, dated 2017).

Columns and labels:
johnsongrass = test: Test C preemergence; assay type: in vivo, Sorghum halepense; conditions: preemergence
Procedure, shortened: (§1)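 Whole-plant greenhouse test with surfactant-containing solvent formulation, applied preemergence to sown loam–sand pots or postemergence to 2–18 cm plants. Scored by eye 13 to 15 days on, 0–100 scale.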

giant foxtail = test: Test C postemergence; assay type: in vivo, Setaria faberii
Procedure, shortened: as §1

barnyardgrass [1] = test: Test A preemergence; assay type: in vivo, Echinochloa crus-galli; conditions: 0 to 100 scale where 0 is no effect and 100 is complete control
Procedure, shortened: (§2)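 Pre- and postemergence greenhouse screen. Soil: loam + sand. Spray carrier: solvent mixture, non-phytotoxic, with surfactant. Post timing at 1–2 leaves, height 2–10 cm. Readout: visual injury on a 0–100 scale roughly 10 days after application, untreated plants as reference.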

barnyardgrass [2] = test: Test A postemergence; assay type: in vivo, Echinochloa crus-galli; conditions: 0 to 100 scale where 0 is no effect and 100 is complete control
Procedure, shortened: as §2

wheat = test: Test A postemergence; assay type: in vivo, Triticum aestivum; conditions: 0 to 100 scale where 0 is no effect and 100 is complete control
Procedure, shortened: as §2

corn = test: Test A preemergence; assay type: in vivo, Zea mays; conditions: 0 to 100 scale where 0 is no effect and 100 is complete control
Procedure, shortened: as §2

blackgrass = test: Test C postemergence; assay type: in vivo, Alopecurus myosuroides
Procedure, shortened: as §1

velvetleaf = test: Test C postemergence; assay type: in vivo, Abutilon theophrasti; conditions: scale 0 to 100 (0 no effect, 100 complete control)
Procedure, shortened: as §1

morningglory = test: Test C preemergence; assay type: in vivo, Ipomoea coccinea; conditions: preemergence
Procedure, shortened: as §1

galium [3] = test: Test C preemergence; assay type: in vivo, Galium aparine; conditions: for Galium plant response rating: preemergence
Procedure, shortened: as §1

galium [4] = test: Test C postemergence; assay type: in vivo, Galium aparine
Procedure, shortened: as §1

lambsquarters = test: Test C postemergence; assay type: in vivo, Chenopodium album
Procedure, shortened: as §1

Italian ryegrass = test: Test C preemergence; assay type: in vivo, Lolium multiflorum; conditions: preemergence
Procedure, shortened: as §1

ragweed = test: Test C postemergence; assay type: in vivo, Ambrosia elatior
Procedure, shortened: as §1

soybean = test: Test C postemergence; assay type: in vivo, Glycine max
Procedure, shortened: as §1

[5] = 16 g ai/ha, scale 0 to 100 (0 no effect, 100 complete control)
[6] = 62 g ai/ha, scale 0 (no effect) to 100 (complete control)
[7] = 125 g ai/ha, scale 0 (no effect) to 100 (complete control)
[8] = 16 g ai/ha, postemergence, 0 is no effect, 100 is complete control
[9] = 31 g ai/ha, postemergence, visual rating, scale 0 to 100 (0 no effect, 100 complete control), 13 to 15 days
[10] = 125 g ai/ha, postemergence, visual rating, scale 0 to 100 (0 no effect, 100 complete control)
[11] = Postemergence, 62 g ai/ha, scale 0 to 100 (0 no effect, 100 complete control)

Fc1cnc(Oc2cccc(C(F)F)c2-n2cc(C(F)(F)F)cn2)nc1 [Compound 164]
Johnsongrass plant response rating (johnsongrass; [5]): 5
Johnsongrass plant response rating (johnsongrass; [6]): 75
Johnsongrass plant response rating (johnsongrass; [7]): 80
Plant response rating (0 to 100), Foxtail, Giant (giant foxtail; [8]): 0
Foxtail, Giant plant response rating (giant foxtail; [9]): 20
Plant response rating, Foxtail, Giant (giant foxtail; [10]): 10
Plant response rating, Foxtail, Giant (giant foxtail; [11]): 10
Plant response rating, Barnyardgrass (barnyardgrass [1]; 125 g ai/ha): 90
Barnyardgrass plant response rating (barnyardgrass [1]; 500 g ai/ha): 100
Barnyardgrass plant response rating (barnyardgrass [2]; 125 g ai/ha): 70
Plant response rating, Barnyardgrass (barnyardgrass [2]; 500 g ai/ha): 100
Wheat plant response rating (wheat; 125 g ai/ha): 70
Plant response rating, Wheat (wheat; 500 g ai/ha): 90
Plant response rating, Corn (corn; 125 g ai/ha): 10
Corn plant response rating (corn; 500 g ai/ha): 60
Plant response rating (0 to 100), Blackgrass (blackgrass; [8]): 0
Blackgrass plant response rating (blackgrass; [9]): 0
Plant response rating, Blackgrass (blackgrass; [10]): 15
Plant response rating, Blackgrass (blackgrass; [11]): 5
Velvetleaf plant response rating (velvetleaf; 31 g ai/ha, postemergence, visual rating, 13 to 15 days): 15
Plant response rating, Velvetleaf (velvetleaf; 125 g ai/ha, postemergence, visual rating): 65
Plant response rating, Velvetleaf (velvetleaf; Postemergence, 62 g ai/ha): 40
Morningglory plant response rating (morningglory; [5]): 10
Morningglory plant response rating (morningglory; [6]): 85
Morningglory plant response rating (morningglory; [7]): 100
Galium plant response rating (galium [3]; [5]): 75
Galium plant response rating (galium [3]; [6]): 95
Galium plant response rating (galium [3]; [7]): 95
Plant response rating, Galium (galium [3]; Preemergence, 31 g ai/ha, scale 0 to 100, 0 no effect, 100 complete control): 100
Plant response rating (0 to 100), Galium (galium [4]; [8]): 50
Galium plant response rating (galium [4]; [9]): 55
Plant response rating, Galium (galium [4]; [10]): 65
Plant response rating, Galium (galium [4]; [11]): 80
Plant response rating (0 to 100), Lambsquarters (lambsquarters; [8]): 15
Lambsquarters plant response rating (lambsquarters; [9]): 25
Plant response rating, Lambsquarters (lambsquarters; [10]): 65
Plant response rating, Lambsquarters (lambsquarters; [11]): 40
Ryegrass, Italian plant response rating (Italian ryegrass; [5]): 0
Ryegrass, Italian plant response rating (Italian ryegrass; [6]): 65
Ryegrass, Italian plant response rating (Italian ryegrass; [7]): 98
Plant response rating (0 to 100), Ragweed (ragweed; [8]): 20
Ragweed plant response rating (ragweed; [9]): 15
Plant response rating, Ragweed (ragweed; [10]): 55
Plant response rating, Ragweed (ragweed; [11]): 60
Plant response rating (0 to 100), Soybean (soybean; [8]): 40
Soybean plant response rating (soybean; [9]): 35
Plant response rating, Soybean (soybean; [10]): 65
Plant response rating, Soybean (soybean; [11]): 75
